Reference: article PMC9454848, “BMS-986158, a Small Molecule Inhibitor of the Bromodomain and Extraterminal Domain Proteins, in Patients with Selected Advanced Solid Tumors: Results from a Phase 1/2a Trial” (Cancers, 2022)
“Also recorded” adds a separate entry of the source. Where two headings read alike, the source gives them in different places.

Experiments:
HEXIM1 mRNA = assay: Change from baseline in gene expression, HEXIM1; assay type: in vivo, human; conditions: patients; by dose
Description: Summary changes from baseline in the expression of BET-regulated genes were assessed in tumor tissues and blood collected at baseline and multiple on-treatment time points after BMS-986158 administration following the 3 dosing schedules. The study also assessed summary percent changes from baseline in expression of BET-regulated genes in peripheral blood and tumors (such as HEXIM1 and C-MYC). Tissue and peripheral blood samples (at baseline and on treatment) were collected for genomic, transcriptomic, and epigenetic analyses (by DNA or mRNA) to assess pharmacodynamic changes in BET-regulated genes. These samples were analyzed using whole-exome sequencing, real-time quantitative polymerase chain reaction, and RNA-sequencing methods.
All treated patients with available biomarker measurements at baseline and ≥1 time point were included in the biomarker analyses. Blood and tumor tissue samples were collected at baseline, during treatment, and at end of treatment for biomarker analysis. Markers of selected BET-regulated genes (e.g., HEXIM1) were analyzed with summary statistics for percent changes in expression from available matched pre- and on-treatment samples over time relative to baseline. Statistically significant changes in gene expression were determined using the Benjamini–Hochberg procedure to calculate an adjusted p value with an α level of 0.05.

[1] = system: patient-derived xenograft models; set-up: method as in PMID 34543572; conditions: mouse, low doses; 9 of 19 models; cited from earlier work
[2] = Plasma pharmacokinetics after multiple doses (cycle 2, steady state), LC-MS/MS; assay type: in vivo, human; conditions: for AUC(0-t) / half-life / Tmax / Cmax: human, plasma, oral
Description: At C1D1 in every dosing schedule cohort, a single dose was administered followed by 168 h (i.e., 7 days) of intensive PK sampling. Following cycle 1, the multiple-dose treatment schedules (described above) began in cycle 2. PK parameters were derived following single dose combined across all schedules and multiple doses at cycle 2 for each schedule. […] PK assessments were evaluated for BMS-986158 and its metabolite using plasma samples at regular intervals. Both the parent and metabolite samples were simultaneously analyzed using a validated liquid chromatography and tandem mass spectrometry assay.
All treated patients who received ≥1 dose of BMS-986158 were evaluated in the safety population. […] All treated patients with available and sufficient serum or plasma samples for the corresponding analytes were included in the PK analyses. […] ECG parameters were evaluated in a categorical analysis, and linear mixed-effects regression modeling was used to describe the quantitative relationship between ΔQTcF and time-matched serum concentrations of BMS-986158 or its metabolite at a single dose.

CL/F at steady state, geometric mean, range across doses ([2]; Schedule A): 4.60 to 5.41 mL/min
CL/F at steady state, geometric mean, range across doses ([2]; Schedule B): 3.76 to 9.72 mL/min
CL/F at steady state, geometric mean, range across doses ([2]; Schedule C): 3.89 to 6.65 mL/min
AUC(0-t) ([2]; 0.75 mg, multiple dose, steady state, Schedule A (5 days on, 2 days off), 0.75 mg, n = 3, read-out: AUC(0–24), GM (%CV)): 2720 ng·h/mL
half-life ([2]; 0.75 mg, multiple dose, steady state, Schedule A (5 days on, 2 days off), 0.75 mg, n = 3, read-out: Effective T1/2, mean (SD) (converted)): 36 h
AUC(0-t) ([2]; 0.75 mg, multiple dose, steady state, Schedule A (5 days on, 2 days off), 0.75 mg, n = 4, read-out: AUC(0–T), GM (%CV)): 3450 ng·h/mL
Tmax ([2]; 0.75 mg, multiple dose, steady state, Schedule A (5 days on, 2 days off), 0.75 mg, n = 4, read-out: Tmax, median (range)): 3.14 h
Cmax ([2]; 0.75 mg, multiple dose, steady state, Schedule A (5 days on, 2 days off), n = 4): 136 ng/mL
AUC(0-t) ([2]; 1.25 mg, multiple dose, steady state, Schedule A (5 days on, 2 days off), 1.25 mg, n = 1, read-out: AUC(0–24), GM (%CV)): 3850 ng·h/mL
AUC(0-t) ([2]; 1.25 mg, multiple dose, steady state, Schedule A (5 days on, 2 days off), 1.25 mg, n = 4, read-out: AUC(0–T), GM (%CV)): 4960 ng·h/mL
Tmax ([2]; 1.25 mg, multiple dose, steady state, Schedule A (5 days on, 2 days off), 1.25 mg, n = 4, read-out: Tmax, median (range)): 1.5 h
Cmax ([2]; 1.25 mg, multiple dose, steady state, Schedule A (5 days on, 2 days off), n = 4): 284 ng/mL
AUC(0-t) ([2]; 2 mg, multiple dose, steady state, Schedule A (5 days on, 2 days off), 2.0 mg, n = 7, read-out: AUC(0–T), GM (%CV)): 7610 ng·h/mL
Tmax ([2]; 2 mg, multiple dose, steady state, Schedule A (5 days on, 2 days off), 2.0 mg, n = 7, read-out: Tmax, median (range)): 2 h
Cmax ([2]; 2 mg, multiple dose, steady state, Schedule A (5 days on, 2 days off), n = 7): 442 ng/mL
AUC(0-t) ([2]; 2 mg, multiple dose, steady state, Schedule B (14 days on, 7 days off), 2.0 mg, n = 1, read-out: AUC(0–24), GM (%CV)): 3430 ng·h/mL
AUC(0-t) ([2]; 2 mg, multiple dose, steady state, Schedule B (14 days on, 7 days off), 2.0 mg, n = 1, read-out: AUC(0–T), GM (%CV)): 6320 ng·h/mL
half-life ([2]; 2 mg, multiple dose, steady state, Schedule B (14 days on, 7 days off), 2.0 mg, n = 1, read-out: Effective T1/2, mean (SD) (converted)): 14.4 h
Tmax ([2]; 2 mg, multiple dose, steady state, Schedule B (14 days on, 7 days off), 2.0 mg, n = 1, read-out: Tmax, median (range)): 1 h
Cmax ([2]; 2 mg, multiple dose, steady state, Schedule B (14 days on, 7 days off), n = 1): 279 ng/mL
AUC(0-t) ([2]; 2 mg, multiple dose, steady state, Schedule C (7 days on, 14 days off), 2.0 mg, n = 5, read-out: AUC(0–24), GM (%CV)): 8560 ng·h/mL
AUC(0-t) ([2]; 2 mg, multiple dose, steady state, Schedule C (7 days on, 14 days off), 2.0 mg, n = 5, read-out: AUC(0–T), GM (%CV)): 19900 ng·h/mL
half-life ([2]; 2 mg, multiple dose, steady state, Schedule C (7 days on, 14 days off), 2.0 mg, n = 5, read-out: Effective T1/2, mean (SD) (converted)): 31.6 h
Tmax ([2]; 2 mg, multiple dose, steady state, Schedule C (7 days on, 14 days off), 2.0 mg, n = 5, read-out: Tmax, median (range)): 1 h
Cmax ([2]; 2 mg, multiple dose, steady state, Schedule C (7 days on, 14 days off), n = 5): 520 ng/mL
AUC(0-t) ([2]; 3 mg, multiple dose, steady state, Schedule A (5 days on, 2 days off), 3.0 mg, n = 7, read-out: AUC(0–24), GM (%CV)): 9820 ng·h/mL
half-life ([2]; 3 mg, multiple dose, steady state, Schedule A (5 days on, 2 days off), 3.0 mg, n = 7, read-out: Effective T1/2, mean (SD) (converted)): 25.7 h
AUC(0-t) ([2]; 3 mg, multiple dose, steady state, Schedule A (5 days on, 2 days off), 3.0 mg, n = 8, read-out: AUC(0–T), GM (%CV)): 13400 ng·h/mL
Tmax ([2]; 3 mg, multiple dose, steady state, Schedule A (5 days on, 2 days off), 3.0 mg, n = 8, read-out: Tmax, median (range)): 2.01 h
Cmax ([2]; 3 mg, multiple dose, steady state, Schedule A (5 days on, 2 days off), n = 8): 624 ng/mL
AUC(0-t) ([2]; 3 mg, multiple dose, steady state, Schedule B (14 days on, 7 days off), 3.0 mg, n = 1, read-out: AUC(0–24), GM (%CV)): 13300 ng·h/mL
AUC(0-t) ([2]; 3 mg, multiple dose, steady state, Schedule B (14 days on, 7 days off), 3.0 mg, n = 1, read-out: AUC(0–T), GM (%CV)): 34000 ng·h/mL
half-life ([2]; 3 mg, multiple dose, steady state, Schedule B (14 days on, 7 days off), 3.0 mg, n = 1, read-out: Effective T1/2, mean (SD) (converted)): 37.3 h
Tmax ([2]; 3 mg, multiple dose, steady state, Schedule B (14 days on, 7 days off), 3.0 mg, n = 1, read-out: Tmax, median (range)): 1 h
Cmax ([2]; 3 mg, multiple dose, steady state, Schedule B (14 days on, 7 days off), n = 1): 855 ng/mL
half-life ([2]; 3 mg, multiple dose, steady state, Schedule C (7 days on, 14 days off), 3.0 mg, n = 7, read-out: Effective T1/2, mean (SD) (converted)): 27.3 h
AUC(0-t) ([2]; 3 mg, multiple dose, steady state, Schedule C (7 days on, 14 days off), 3.0 mg, n = 8, read-out: AUC(0–24), GM (%CV)): 8640 ng·h/mL
AUC(0-t) ([2]; 3 mg, multiple dose, steady state, Schedule C (7 days on, 14 days off), 3.0 mg, n = 8, read-out: AUC(0–T), GM (%CV)): 18300 ng·h/mL
Tmax ([2]; 3 mg, multiple dose, steady state, Schedule C (7 days on, 14 days off), 3.0 mg, n = 8, read-out: Tmax, median (range)): 1.66 h
Cmax ([2]; 3 mg, multiple dose, steady state, Schedule C (7 days on, 14 days off), n = 8): 588 ng/mL
AUC(0-t) ([2]; 4.5 mg, multiple dose, steady state, Schedule A (5 days on, 2 days off), 4.5 mg, n = 8, read-out: AUC(0–24), GM (%CV)): 14600 ng·h/mL
AUC(0-t) ([2]; 4.5 mg, multiple dose, steady state, Schedule A (5 days on, 2 days off), 4.5 mg, n = 8, read-out: AUC(0–T), GM (%CV)): 29500 ng·h/mL
half-life ([2]; 4.5 mg, multiple dose, steady state, Schedule A (5 days on, 2 days off), 4.5 mg, n = 8, read-out: Effective T1/2, mean (SD) (converted)): 27.3 h
Tmax ([2]; 4.5 mg, multiple dose, steady state, Schedule A (5 days on, 2 days off), 4.5 mg, n = 8, read-out: Tmax, median (range)): 2 h
Cmax ([2]; 4.5 mg, multiple dose, steady state, Schedule A (5 days on, 2 days off), n = 8): 898 ng/mL
half-life ([2]; 4.5 mg, multiple dose, steady state, Schedule C (7 days on, 14 days off), 4.5 mg, n = 5, read-out: Effective T1/2, mean (SD) (converted)): 27.6 h
AUC(0-t) ([2]; 4.5 mg, multiple dose, steady state, Schedule C (7 days on, 14 days off), 4.5 mg, n = 7, read-out: AUC(0–24), GM (%CV)): 11300 ng·h/mL
AUC(0-t) ([2]; 4.5 mg, multiple dose, steady state, Schedule C (7 days on, 14 days off), 4.5 mg, n = 7, read-out: AUC(0–T), GM (%CV)): 20000 ng·h/mL
Tmax ([2]; 4.5 mg, multiple dose, steady state, Schedule C (7 days on, 14 days off), 4.5 mg, n = 7, read-out: Tmax, median (range)): 2 h
Cmax ([2]; 4.5 mg, multiple dose, steady state, Schedule C (7 days on, 14 days off), n = 7): 901 ng/mL
half-life ([2]; multiple dose, Schedule A, read-out: Mean effective T1/2, range): 25.7 to 36 h
half-life ([2]; multiple dose, Schedule B, read-out: Mean effective T1/2, range): 14.4 to 37.3 h
half-life ([2]; multiple dose, Schedule C, read-out: Mean effective T1/2, range): 27.3 to 31.6 h
AUC(0-t) ([2]; multiple doses, Schedule A, 0.75–4.5-mg doses, read-out: Geometric mean AUC(0–T), range): 3450 to 29500 ng·h/mL
AUC(0-t) ([2]; multiple doses, Schedule A, read-out: AUC(0–24), range): 2720 to 14600 ng·h/mL
AUC(0-t) ([2]; multiple doses, Schedule B, 2.0–3.0-mg dose groups, read-out: Geometric mean AUC(0–T), range): 6320 to 34000 ng·h/mL
AUC(0-t) ([2]; multiple doses, Schedule B, read-out: AUC(0–24), range): 3430 to 13300 ng·h/mL
AUC(0-t) ([2]; multiple doses, Schedule C, 2.0–4.5 mg, read-out: Geometric mean AUC(0–T), range): 18300 to 20000 ng·h/mL
AUC(0-t) ([2]; multiple doses, Schedule C, read-out: AUC(0–24), range): 8560 to 11300 ng·h/mL
Tmax ([2]; multiple-dose administration, read-out: Tmax, range across all doses and schedules): 1 to 3.14 h
Dose proportionality of PK profile ([2]; multiple-dose administration, Schedule C): less than dose proportional
Structure (SMILES): Cc1nnn(C)c1-c1cnc2c3ccc(C(C)(C)O)cc3n([C@H](c3ccccc3)C3CCOCC3)c2c1 [BMS-986158]
HEXIM1 mRNA expression change from baseline (HEXIM1 mRNA): dose dependently upregulated; also recorded: transcriptional activation
Patient-derived xenograft models with antitumor activity [1]: 47%
Dose proportionality of PK profile ([2]; multiple-dose administration, Schedule A): approximately dose proportional; also recorded: dose-proportional PK profile
